Experimental data from PubChem BioAssay (NCI).
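Tested at 5 concentrations; 48 h exposure; 96-well plates; endpoints linearly interpolated, else capped at highest concentration. Abbreviation: GI50, concentration required for 50% inhibition of growth. The concentration for full growth arrest is given as TGI.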 Where a SMILES comes first, the peptide text is derived from it. The star is where a group is joined. Boc = CC(C)(C)OC(=O)*; nBu = CCCC*

Experiments:
Assay in all cases: NCI tumour cell line growth inhibition, 48 h
CAKI-1 renal = system: CAKI-1 renal
OVCAR-3 ovarian = system: OVCAR-3 ovarian
HL-60(TB) leukemia = system: HL-60(TB) leukemia
TK-10 renal = system: TK-10 renal
A549 NSCLC = system: A549 NSCLC
IGROV1 ovarian = system: IGROV1 ovarian
HCT-15 colon = system: HCT-15 colon
M14 melanoma = system: M14 melanoma
SF-295 CNS = system: SF-295 CNS
LOX IMVI melanoma = system: LOX IMVI melanoma
OVCAR-4 ovarian = system: OVCAR-4 ovarian

SMILES: CCCCOc1ccc(CC(NC(=O)OC(C)(C)C)C(=O)NC(C)C(=O)NC(Cc2ccccc2)C(=O)NCC(N)=O)cc1 (stereo not given) (Boc-Y(nBu)AFG-NH2; configuration not given here)
- TGI (CAKI-1 renal): > 100 µM
- TGI (OVCAR-3 ovarian): > 100 µM
- TGI (HL-60(TB) leukemia): > 100 µM
- TGI (TK-10 renal): > 100 µM
- TGI (A549 NSCLC): > 100 µM
- TGI (IGROV1 ovarian): > 100 µM
- TGI (HCT-15 colon): > 100 µM
- TGI (M14 melanoma): > 100 µM
- TGI (SF-295 CNS): > 100 µM
- TGI (LOX IMVI melanoma): > 100 µM
- TGI (OVCAR-4 ovarian): > 100 µM

SMILES: O=C(Cc1nc2ccccc2[nH]c1=O)c1c[nH]c2ccccc12
- TGI (CAKI-1 renal): 63.4 µM
- TGI (OVCAR-3 ovarian): 68 µM
- TGI (HL-60(TB) leukemia): > 100 µM
- TGI (TK-10 renal): 34.1 µM
- TGI (A549 NSCLC): > 100 µM
- TGI (IGROV1 ovarian): > 100 µM
- TGI (HCT-15 colon): > 100 µM
- TGI (M14 melanoma): > 100 µM
- TGI (SF-295 CNS): 35 µM
- TGI (LOX IMVI melanoma): > 100 µM
- TGI (OVCAR-4 ovarian): 72.2 µM

SMILES: COc1ccc2nc3cc(Cl)ccc3c(NCCCN3CCN(CCCNc4ccc5nnn6c7ccccc7c(=O)c4c56)CC3)c2c1
- TGI (CAKI-1 renal): > 15.8 µM
- TGI (OVCAR-3 ovarian): > 25 µM
- TGI (HL-60(TB) leukemia): > 18.7 µM
- TGI (TK-10 renal): > 25 µM
- TGI (A549 NSCLC): > 25 µM
- TGI (IGROV1 ovarian): > 25 µM
- TGI (HCT-15 colon): > 25 µM
- TGI (M14 melanoma): > 25 µM
- TGI (SF-295 CNS): > 25 µM
- TGI (LOX IMVI melanoma): > 25 µM
- TGI (OVCAR-4 ovarian): > 25 µM

SMILES: O=C(Nc1ccccc1)Oc1ccc(C(=S)Nc2ccc(Br)cc2)cc1
- TGI (CAKI-1 renal): 41 µM
- TGI (OVCAR-3 ovarian): 52.8 µM
- TGI (HL-60(TB) leukemia): 30.3 µM
- TGI (IGROV1 ovarian): 28 µM
- TGI (HCT-15 colon): 34.5 µM
- TGI (SF-295 CNS): 84.3 µM
- TGI (LOX IMVI melanoma): 24.8 µM
- TGI (OVCAR-4 ovarian): 86.3 µM

SMILES: COc1ccccc1-c1c(C#N)c(N)[nH]c(=S)c1C#N
- TGI (CAKI-1 renal): > 100 µM
- TGI (OVCAR-3 ovarian): > 100 µM
- TGI (HL-60(TB) leukemia): > 100 µM
- TGI (TK-10 renal): > 100 µM
- TGI (A549 NSCLC): > 100 µM
- TGI (IGROV1 ovarian): > 100 µM
- TGI (HCT-15 colon): > 100 µM
- TGI (M14 melanoma): > 100 µM
- TGI (SF-295 CNS): > 100 µM
- TGI (LOX IMVI melanoma): > 100 µM
- TGI (OVCAR-4 ovarian): > 100 µM

SMILES: Cc1c(-c2ccccc2)[nH]c2cn[nH]c(=O)c12
- TGI (CAKI-1 renal): > 100 µM
- TGI (OVCAR-3 ovarian): > 100 µM
- TGI (HL-60(TB) leukemia): > 100 µM
- TGI (TK-10 renal): > 100 µM
- TGI (A549 NSCLC): > 100 µM
- TGI (IGROV1 ovarian): > 100 µM
- TGI (HCT-15 colon): > 100 µM
- TGI (M14 melanoma): > 100 µM
- TGI (SF-295 CNS): > 100 µM
- TGI (LOX IMVI melanoma): > 100 µM

SMILES: CC1(C)OC[C@@H]([C@@]2(COC(c3ccccc3)(c3ccccc3)c3ccccc3)CC=CC(=O)O2)O1
- TGI (CAKI-1 renal): > 100 µM
- TGI (OVCAR-3 ovarian): > 100 µM
- TGI (HL-60(TB) leukemia): 81.2 µM
- TGI (TK-10 renal): > 100 µM
- TGI (A549 NSCLC): > 100 µM
- TGI (HCT-15 colon): > 100 µM
- TGI (M14 melanoma): > 100 µM
- TGI (SF-295 CNS): > 100 µM
- TGI (LOX IMVI melanoma): > 100 µM
- TGI (OVCAR-4 ovarian): > 100 µM

SMILES: O=C(O)c1cc2ccccc2c(N=Nc2ccc(S(=O)(=O)Nc3ncccn3)cc2)c1O
- TGI (CAKI-1 renal): > 100 µM
- TGI (OVCAR-3 ovarian): > 100 µM
- TGI (HL-60(TB) leukemia): > 100 µM
- TGI (TK-10 renal): > 100 µM
- TGI (A549 NSCLC): > 100 µM
- TGI (IGROV1 ovarian): > 100 µM
- TGI (HCT-15 colon): > 100 µM
- TGI (M14 melanoma): > 100 µM
- TGI (SF-295 CNS): > 100 µM
- TGI (OVCAR-4 ovarian): > 100 µM

SMILES: COc1cc(C2S/C(=C/c3ccccc3)C(=O)N2c2cccc(NC(C)=O)c2)cc(OC)c1OC (stereo not given)
- TGI (CAKI-1 renal): > 100 µM
- TGI (TK-10 renal): > 100 µM
- TGI (A549 NSCLC): > 100 µM
- TGI (HCT-15 colon): > 100 µM
- TGI (M14 melanoma): > 100 µM
- TGI (SF-295 CNS): > 100 µM
- TGI (LOX IMVI melanoma): 54.7 µM
- TGI (OVCAR-4 ovarian): > 100 µM

SMILES: Cc1cc(-c2nc3c(F)cccc3s2)ccc1N
- TGI (CAKI-1 renal): > 100 µM
- TGI (OVCAR-3 ovarian): > 100 µM
- TGI (HL-60(TB) leukemia): > 100 µM
- TGI (A549 NSCLC): > 100 µM
- GI50 (IGROV1 ovarian): 22.7 µM
- TGI (IGROV1 ovarian): > 100 µM
- TGI (HCT-15 colon): > 100 µM
- TGI (M14 melanoma): > 100 µM
- TGI (SF-295 CNS): > 100 µM
- TGI (LOX IMVI melanoma): > 100 µM
- GI50 (OVCAR-4 ovarian): 20.9 µM
- TGI (OVCAR-4 ovarian): > 100 µM

SMILES: C=C1C(O)C2(O)OCC34C(CC5C(C)=CC(=O)C(O)C5(C)C23)OC(=O)C(OC(=O)C/C=C/CCCCCCCC)C14 (stereo not given)
- TGI (CAKI-1 renal): 0.232 µM
- TGI (HL-60(TB) leukemia): 0.2 µM
- TGI (A549 NSCLC): 0.0918 µM
- TGI (IGROV1 ovarian): 0.0303 µM
- TGI (HCT-15 colon): 0.0979 µM
- TGI (LOX IMVI melanoma): 2 µM

SMILES: CN(C)c1ccc(-c2ccc(-c3ccc(C(=N)N)cn3)o2)cc1
- GI50 (OVCAR-3 ovarian): 1760 nM
- TGI (OVCAR-3 ovarian): 3.24 µM
- GI50 (HL-60(TB) leukemia): 1760 nM
- TGI (HL-60(TB) leukemia): 3.73 µM
- GI50 (TK-10 renal): 1950 nM
- TGI (TK-10 renal): 3.39 µM
- GI50 (A549 NSCLC): 1890 nM
- TGI (A549 NSCLC): 3.75 µM
- GI50 (IGROV1 ovarian): 1.89 µM
- TGI (IGROV1 ovarian): 3.6 µM
- GI50 (HCT-15 colon): 1360 nM
- TGI (HCT-15 colon): 2.98 µM
- GI50 (M14 melanoma): 1850 nM
- TGI (M14 melanoma): 3.47 µM
- GI50 (SF-295 CNS): 2000 nM
- TGI (SF-295 CNS): 3.81 µM

SMILES: O=[N+]([O-])c1ccc(N=Nc2c(O)[nH]c3ccccc23)c([N+](=O)[O-])c1
- TGI (CAKI-1 renal): 43.9 µM
- TGI (OVCAR-3 ovarian): 13.9 µM
- TGI (HL-60(TB) leukemia): > 100 µM
- TGI (TK-10 renal): 27.4 µM
- TGI (A549 NSCLC): 28 µM
- TGI (IGROV1 ovarian): 24.2 µM
- TGI (HCT-15 colon): 57.9 µM
- TGI (M14 melanoma): > 100 µM
- TGI (SF-295 CNS): 25.1 µM
- TGI (LOX IMVI melanoma): 20.7 µM
- TGI (OVCAR-4 ovarian): 30.7 µM
